Measurements: article PMC10313827 (2023)

System: RhoBAST (RNA, aptamer) GGAACCUCCGCGAAAGCGGUGAAGGAGAGGCGCAAGGUUAACCGCCUCAGGUUCC
Test: fluorescence titration, fixed dye, aptamer varied
Conditions: 125 mM KCl, 1 mM MgCl2; 20 mM HEPES pH 7.4, 0.05% Tween 20, 25 °C, 10 nM dye

KD: 0.1 ± 0.008 µM
Compound: CN(C)S(=O)(=O)N1C(=O)c2ccccc2C12c1ccc(N3CCC3)cc1Oc1cc(N3CCC3)ccc12
